{
  "source": "patent US9125416B2",
  "about": "“Pesticidal mixtures” (BASF SE, priority 2010, dated 2015)",
  "type_in_all_cases": "in vivo",
  "key": {"[1]": {"test_system": "vetch aphid (Megoura viciae)", "assay": "Test 1: Control of Vetch Aphid, broad bean leaf disks in 24-well-microtiter plates", "settings": "sprayed on leaf disks, aphid mortality and fecundity after 5 days"}, "[2]": {"test_system": "green peach aphid (Myzus persicae)", "assay": "Test 2: Control of Green Peach Aphid, liquid artificial diet under artificial membrane, 96-well-microtiter plates", "settings": "aphid mortality and fecundity after 3 days"}, "[3]": {"test_system": "boll weevil (Anthonomus grandis)", "assay": "Test 3: Control of Boll Weevil, insect diet with A. grandis eggs, 24-well-microtiter plates", "settings": "sprayed onto insect diet, egg and larval mortality after 5 days"}},
  "data": [
    {"compound": "Cc1c(COC(=O)[C@@H]2[C@H](/C=C(\\Cl)C(F)(F)F)C2(C)C)cccc1-c1ccccc1", "note": "(racemic) [Bifenthrin, bifenthrin]", "values": [
      {"measurement": "Oberved Control average", "setting": "[1]; 2 ppm", "result": 0, "unit": "%"},
      {"measurement": "Oberved Control average", "setting": "[2]; 0.08 ppm in aphid diet", "result": 0, "unit": "%"}
    ]},
    {"compound": "C[C@]1(COC(=O)C2CC2)[C@@H]2C[C@H](O)[C@@]3(C)Oc4cc(-c5cccnc5)oc(=O)c4[C@H](O)[C@@H]3[C@@]2(C)CC[C@@H]1OC(=O)C1CC1", "note": "[Compound I, [(3S,4R,4aR,6S,6aS,12R,12aS,12bS)-3-(cyclopropanecarbonyloxy)-6,12-dihydroxy-4,6a,12b-trimethyl-11-oxo-9-(pyridin-3-yl)-1,2,3,4,4a,5,6,6a,12a,12b-decahydro-11H,12H-benzo[f]pyrano[4,3-b]chromen-4-yl]methyl cyclopropanecarboxylate]", "values": [
      {"measurement": "Oberved Control average", "setting": "[1]; 0.004 ppm", "result": 25, "unit": "%"},
      {"measurement": "Oberved Control average", "setting": "[3]; 0.02 ppm", "result": 0, "unit": "%"},
      {"measurement": "Oberved Control average", "setting": "[2]; 0.004 ppm in aphid diet", "result": 0, "unit": "%"}
    ]},
    {"compound": "O=C1C=C(N(CCF)Cc2ccc(Cl)nc2)CO1", "note": "[Compound M26.4, 4-{[(6-chloropyrid-3-yl)methyl](2-fluoroethyl)amino}furan-2(5H)-on]", "values": [
      {"measurement": "Oberved Control average", "setting": "[3]; 2 ppm", "result": 0, "unit": "%"}
    ]},
    {"compound": "abamectin", "values": [
      {"measurement": "Oberved Control average", "setting": "[2]; 0.016 ppm in aphid diet", "result": 0, "unit": "%"}
    ]}
  ]
}
